Where two headings read alike, the source gives them in different places.
Tests used:
GRB7 SH2 domain [1] = biological target: T1, GRB7 SH2 domain (Homo sapiens, UniProt Q14451); test: FP saturation binding assay; conditions: peptides queried on both FP and PM platforms
SH2 and PTB domains = conditions: original PM interactions, ref Jones et al. 2006 / Kaushansky et al. Chem and Biol 2008, cited from earlier work
From the text: Supplement pone.0044471.s022.xlsx, sheet "Most recent PM interactions" | column: Kd || Supplement pone.0044471.s022.xlsx, sheet "All original PM interactions" | column: Kd

GRB7 SH2 domain [2] = biological target: T1, GRB7 SH2 domain; set-up: 6X His; thioredoxin; made in house; host or cells: E. coli BL21(DE3)pLysS; conditions: previous protein microarray data, Figure S5; cited from earlier work

T1 sequence (Q14451 431-527 limits assumed): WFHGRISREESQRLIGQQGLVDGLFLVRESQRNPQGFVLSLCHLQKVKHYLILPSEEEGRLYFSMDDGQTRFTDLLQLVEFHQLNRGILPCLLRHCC

For “FDNLpYYWDQDPPEd [ErbB2 pY1221, N-terminally rhodamine-labeled 13-mer phosphopeptide]”, the “interaction with GRB7 on the FP platform” value (GRB7 SH2 domain [1]) is listed as “only displayed interactions with GRB7 from the PM platform”, the Kd (SH2 and PTB domains; Protein ABL2) is listed as 500 nM and the Kd (SH2 and PTB domains; Protein BLK) is listed as 1200 nM. For the same substance, the Kd (SH2 and PTB domains; Protein BLNK) was 1560 nM, the Kd (SH2 and PTB domains; Protein BMX) was 2000 nM and the Kd (SH2 and PTB domains; Protein FGR) was 2000 nM. The Kd (SH2 and PTB domains; Protein GRB10) was 120 nM, the Kd (SH2 and PTB domains; Protein GRB14) was 1400 nM and the Kd (SH2 and PTB domains; Protein ITK) was 1520 nM. For the same substance, the Kd (SH2 and PTB domains; Protein LYN) was 930 nM, the Kd (SH2 and PTB domains; Protein PIK3R1-C) was 2000 nM and the Kd (SH2 and PTB domains; Protein PIK3R1-NC) was 1160 nM. For the same substance, the Kd (SH2 and PTB domains; Protein PIK3R2-N) was 950 nM, the Kd (SH2 and PTB domains; Protein PIK3R2-NC) was 2000 nM and the Kd (SH2 and PTB domains; Protein PIK3R3-C) was 1910 nM. For the same substance, the Kd (SH2 and PTB domains; Protein PIK3R3-N) was 2000 nM, the Kd (SH2 and PTB domains; Protein PIK3R3-NC) was 2000 nM and the Kd (SH2 and PTB domains; Protein PLCG1-C) was 2000 nM. For the same substance, the Kd (SH2 and PTB domains; Protein PLCG1-N) was 1930 nM, the Kd (SH2 and PTB domains; Protein PLCG1-NC) was 1960 nM and the Kd (SH2 and PTB domains; Protein PLCG2-N) was 2000 nM. For the same substance, the Kd (SH2 and PTB domains; Protein PLCG2-NC) was 2000 nM, the Kd (SH2 and PTB domains; Protein PTPN11-N) was 2000 nM and the Kd (SH2 and PTB domains; Protein RASA1-N) was 370 nM. The Kd (SH2 and PTB domains; Protein RASA1-NC) was 900 nM, the Kd (SH2 and PTB domains; Protein SH2D3A) was 1280 nM and the Kd (SH2 and PTB domains; Protein SH2D3C) was 160 nM. The Kd (SH2 and PTB domains; Protein SH3BP2) was 2000 nM, the Kd (SH2 and PTB domains; Protein SHB) was 210 nM and the Kd (SH2 and PTB domains; Protein SHC1-PTB) was 170 nM. For the same substance, the Kd (SH2 and PTB domains; Protein SHC2-PTB) was 430 nM, the Kd (SH2 and PTB domains; Protein SHD) was 2000 nM and the Kd (SH2 and PTB domains; Protein SHF) was 340 nM. For the same substance, the Kd (SH2 and PTB domains; Protein SLA2) was 1440 nM, the Kd (SH2 and PTB domains; Protein SLA) was 1070 nM and the Kd (SH2 and PTB domains; Protein SOCS1) was 1230 nM. The Kd (SH2 and PTB domains; Protein SRC) was 35 nM, the Kd (SH2 and PTB domains; Protein SUPT6H) was 1570 nM and the Kd (SH2 and PTB domains; Protein SYK-C) was 2000 nM. For the same substance, the Kd (SH2 and PTB domains; Protein SYK-N) was 260 nM, the Kd (SH2 and PTB domains; Protein SYK-NC) was 410 nM and the Kd (SH2 and PTB domains; Protein TEC) was 770 nM. The Kd (SH2 and PTB domains; Protein TXK) was 1230 nM, the Kd (SH2 and PTB domains; Protein VAV2) was 1750 nM and the Kd (SH2 and PTB domains; Protein VAV3) was 1650 nM. The Kd (SH2 and PTB domains; Protein YES1) was 45 nM, the Kd (SH2 and PTB domains; Protein ZAP70-NC) was 1440 nM and the “interaction with GRB7 on the PM platform” value (GRB7 SH2 domain [2]) was “only displayed interactions with GRB7 from the PM platform”.

From article PMC3433420 (PLoS ONE, 2012)
